Reference: patent US5703232A, “Process and solvate of 2-methyl-thieno-benzodiazepine” (Eli Lilly and Company, priority 1996, dated 1997)

Legend:
[1] = detection of radiolabelled compound in saliva; format: in vivo
[2] = stability of the anhydrous crystalline forms; format: physicochemical; settings: anhydrous crystalline form, suitability for commercial pharmaceutical formulations
mice [3] = assay: apomorphine-induced climbing behavior in mice; format: in vivo
Description: (§1) The Form I olanzapine prepared by the process of this invention has useful central nervous system activity. […] For example, the anhydrous Form I compound has been assessed in a number of standard behavior tests predictive of antipsychotic activity. The claimed compound antagonised apomorphine-induced climbing behavior and hypothermia in mice. See Moore, N. A. et al Psychopharmacology 94 (2), 263-266 (1988).

mice [4] = assay: apomorphine-induced hypothermia in mice; format: in vivo
Description: as §1

rats [5] = assay: conditioned avoidance response in rats; format: in vivo
rats [6] = assay: induction of catalepsy; format: in vivo; settings: compared with doses required to block conditioned avoidance response
5-HT2B receptor = 5-HT2B receptor activity

SMILES | detection in saliva [1] | stability of the polymorph [2] | antagonism of apomorphine-induced climbing behavior (mice [3]) | antagonism of apomorphine-induced hypothermia (mice [4]) | inhibition of conditioned avoidance response (rats [5]) | induction of catalepsy (rats [6]) | 5-HT2B receptor activity (5-HT2B receptor)
Cc1cc2c(s1)Nc1ccccc1N=C2N1CCN(C)CC1 [2-methyl-4-(4-methyl-1-piperazinyl)-10H-thieno-[2,3-b][1,5]benzodiazepine] | can be detected in the saliva | – | – | – | – | – | –
Cc1cc2c(s1)Nc1ccccc1N=C2N1CCN(C)CC1 [anhydrous Form I olanzapine, 2-methyl-4-(4-methyl-1-piperazinyl)-10H-thieno[2,3-b][1,5]benzodiazepine] | – | stable | antagonised | antagonised | inhibits | only at higher doses | 5-HT2B receptor activity
Cc1cc2c(s1)Nc1ccccc1N=C2N1CCN(C)CC1 [anhydrous Form II olanzapine, 2-methyl-4-(4-methyl-1-piperazinyl)-10H-thieno[2,3-b][1,5]benzodiazepine] | – | metastable | – | – | – | – | –
